# Experimental data: patent US20240246937A1 (MERCK SHARP & DOHME LLC, priority 2021, published 2024)
# Biological target: recombinant IL4I1 (Homo sapiens (Human), UniProt Q96RQ9)
# Test: IL4I1 Enzymatic Assay (Amplex Red/HRP coupled fluorescence detection of H2O2)
# Format: biochemical
# Details: 240 min; recombinant IL4I1, four-hour pre-incubation with compound
# Description: Interleukin 4 inducible protein 1 (IL4I1) is an L-amino oxidase that catalyzes the oxidation of aromatic residues (Phe, Trp and Tyr): L-amino acid+H2O+O2→2-oxo acid+NH3+H2O2. Equal molar of H2O2 and the corresponding alpha-ketoacid are produced when IL4I1 and substrate are added. In this assay, the hydrogen peroxide generated by IL4I1 is then detected through a coupled reaction with Amplex® Red (10-acetyl-3,7-dihydroxyphenoxazine) and horseradish peroxidase (HRP) to produce resorufin product that could be detected in the form of fluorescence signals. The assessment of the inhibitory effect of small molecules (EC50) on IL4I1 is measured by the effectiveness of the compounds to inhibit the production of H2O2.
# Using this assay, the potency (EC50) of each compound was determined from a ten-point (1:3 serial dilution) titration curve using the following outlined procedure. To each well of a black flat-bottom Greiner (Cat #781076) 384 well-plate, 25 nL of compound (0.1% DMSO in final assay volume of 25 μL) was dispensed, followed by the addition of 12.5 μL of 1× assay buffer (50 mM Hepes 7.0 and 0.005% Tween20 (Sigma, Cat #P8341; low peroxide grade)) containing 2 nM of recombinant IL4I1 (R&D Systems, Cat #5684-AO-020). Plates were placed in an ambient temperature humidified chamber for a four-hour pre-incubation with compound. Subsequently, each reaction was initiated by the addition of 12.5 μL 1× assay buffer containing 2 mM of each aromatic amino acids (Phe/Tyr/Trp), 0.1 mM Amplex Red and 2 U/mL of HRP. The final reaction in each well of 25 μL consisted of 1 nM of IL4I1, 1 mM of each residues (Phe, Tyr and Trp), 0.05 mM Amplex Red and 1 U/mL of HRP. It should be noted that the concentrations of Amplex Red and HRP used here were in excess such that the conversion of H2O2 to resorufin product occurred instantaneously and was non-rate limiting. Reactions were allowed to proceed for 120 minutes followed by fluorescence readout on a Spectramax with the following set parameters: 544 nm excitation/590 nm emission, 570 nm cutoff (EnVision is an alternative reader). Dose-response curves were generated by plotting percent effect (% product conversion; Y-axis) vs. Log10 compound concentrations (X-axis). EC50 values were calculated using a non-linear regression, four-parameters sigmoidal dose-response model and are shown in Potency Table 1.
# Sequence of recombinant IL4I1 (Q96RQ9 22-567): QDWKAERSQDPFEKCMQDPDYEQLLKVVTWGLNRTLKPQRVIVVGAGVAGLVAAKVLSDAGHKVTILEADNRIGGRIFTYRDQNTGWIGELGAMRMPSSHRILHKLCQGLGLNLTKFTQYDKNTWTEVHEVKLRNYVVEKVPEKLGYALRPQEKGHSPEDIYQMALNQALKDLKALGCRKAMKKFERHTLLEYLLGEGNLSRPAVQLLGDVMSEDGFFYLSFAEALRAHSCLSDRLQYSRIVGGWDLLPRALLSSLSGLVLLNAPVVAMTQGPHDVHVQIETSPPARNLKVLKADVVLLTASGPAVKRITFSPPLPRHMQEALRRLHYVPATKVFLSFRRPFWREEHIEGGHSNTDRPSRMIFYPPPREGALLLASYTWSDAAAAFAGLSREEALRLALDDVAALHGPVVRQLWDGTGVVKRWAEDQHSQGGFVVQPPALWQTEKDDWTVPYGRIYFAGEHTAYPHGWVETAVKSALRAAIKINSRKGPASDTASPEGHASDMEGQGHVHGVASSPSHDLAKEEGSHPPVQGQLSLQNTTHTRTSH
row,Compound,EC50
1,"CC(c1ncc(-c2ccccc2)cn1)N1CCN(C2CCC2)C(=O)C1=O (single isomer, unassigned) [Example 134, (R or S)-1-cyclobutyl-4-(1-(5-phenylpyrimidin-2-yl)ethyl)piperazine-2,3-dione]",40 nM
2,"O=C1C(=O)N2CCCCC2CN1Cc1nnc(-c2ccccc2)s1 (single isomer, unassigned) [Example 180, (R or S)-2-((5-phenyl-1,3,4-thiadiazol-2-yl)methyl)hexahydro-2H-pyrido[1,2-a]pyrazine-3,4-dione]",97 nM
3,"CC1CCC(N2CCN(Cc3ncc(-c4ccccc4)cn3)C(=O)C2=O)C1 (single isomer, unassigned) [Example 344, (R or S, R or S)-1-(3-methylcyclopentyl)-4-((5-phenylpyrimidin-2-yl)methyl)piperazine-2,3-dione]",49 nM
4,"O=C1C(=O)N(C2CCC2)[C@H]2CCC[C@@H]2N1Cc1ccc(-c2ccccc2)nn1 (single isomer, unassigned) [Example 435A, (S,S or R,R)-1-cyclobutyl-4-((6-phenylpyridazin-3-yl)methyl)hexahydro-1H-cyclopenta[b]pyrazine-2,3-dione]",85 nM
5,"O=C1C(=O)N(C2CCC2)C2CCCC2N1Cc1ccc(-c2ccccc2)nn1 (single isomer, unassigned) [Example 435B, (S,R or S,R)-1-cyclobutyl-4-((6-phenylpyridazin-3-yl)methyl)hexahydro-1H-cyclopenta[b]pyrazine-2,3-dione]",76 nM
6,"CC1CN(C2CCC2)C(=O)C(=O)N1Cc1nnc(-c2ccccc2)s1 (single isomer, unassigned) [Example 437, (R or S)-1-cyclobutyl-5-methyl-4-((5-phenyl-1,3,4-thiadiazol-2-yl)methyl)piperazine-2,3-dione]",34 nM
7,"O=C1C(=O)N(C2CC[C@H](O)C2)CCN1Cc1nnc(-c2ccccc2)s1 (single isomer, unassigned) [Example 438, (R,S or S,R)-1-(3-hydroxycyclopentyl)-4-((5-phenyl-1,3,4-thiadiazol-2-yl)methyl)piperazine-2,3-dione]",40 nM

# Stronger by EC50, values ahead:
row,EC50,Compound
1,22 nM,"CC(c1ncc(-c2ccccc2)cn1)N1CCN(C2CCCC2)C(=O)C1=O (single isomer, unassigned) [Example 133, (R or S)-1-cyclopentyl-4-(1-(5-phenylpyrimidin-2-yl)ethyl)piperazine-2,3-dione]"
2,19 nM,"CC1CN(Cc2ncc(-c3ccccc3)cn2)C(=O)C(=O)N1C1CCCC1 (single isomer, unassigned) [Example 341, (R or S)-4-cyclopentyl-5-methyl-1-((5-phenylpyrimidin-2-yl)methyl)piperazine-2,3-dione]"
3,14 nM,"O=C1C(=O)N2CCCCC2CN1Cc1nnc(-c2ccccc2)s1 (single isomer, unassigned) [Example 182, (R or S)-2-((5-phenyl-1,3,4-thiadiazol-2-yl)methyl)hexahydro-2H-pyrido[1,2-a]pyrazine-3,4-dione]"
4,12 nM,"CC(c1ccc(-c2ccccc2)nc1)N1CCN(C2CCCC2)C(=O)C1=O (single isomer, unassigned) [Example 99, (R or S)-1-cyclopentyl-4-(1-(6-phenylpyridin-3-yl)ethyl)piperazine-2,3-dione]"
5,6 nM,"O=C1C(=O)N([C@@H]2CC[C@@H](c3ccccc3)C2)CCN1Cc1nnc(-c2ccccc2)s1 (single isomer, unassigned) [Example 440B, (R or S, R or S)-1-((5-phenyl-1,3,4-thiadiazol-2-yl)methyl)-4-(3-phenylcyclopentyl)piperazine-2,3-dione]"
6,5 nM,"O=C1C(=O)N([C@@H]2CC[C@@H](c3ccccc3)C2)CCN1Cc1nnc(-c2ccccc2)s1 (single isomer, unassigned) [Example 440A, (R or S, R or S)-1-((5-phenyl-1,3,4-thiadiazol-2-yl)methyl)-4-(3-phenylcyclopentyl)piperazine-2,3-dione]"
